Assay [1] concerns the target kinase panel containing either 359 or 386 distinct kinases. The experiment in a line: Competition binding assay, selectivity score (S10) against a panel of kinases. The following applies: compounds at 10 μM; fraction of kinases with percent of control less than 10. As to the method:
Competition binding assays used herein were developed, validated and performed as described in Fabian et al., Nature Biotechnology 2005, 23, 329-336. Kinases were produced as fusions to T7 phage (See, Fabian et al. or WO04/015142) or alternatively, the kinases were expressed in HEK-293 cells and subsequently tagged with DNA for PCR detection (See, WO08/005,310). […] The liganded beads were blocked with excess biotin and washed with blocking buffer (SeaBlock (Pierce), 1% BSA, 0.05% Tween 20, 1 mM DTT) to remove unbound ligand and to reduce non-specific binding. […] Test compounds were prepared as 100× stocks in DMSO and diluted into the aqueous environment. Kds were determined using an eleven point threefold serial dilutions. DMSO or control compounds were was added to control assays lacking a test compound. Primary screen assays were performed in polypropylene 384-well plates in a final volume of 20-40 μL, while Kd determinations were performed in polystyrene 96-well plates in a final volume of […]. […] The kinase concentration in the eluates was measured by quantitative PCR.
A selectivity score (S10) is a quantitative measure of selectivity of a compound against a panel of kinases. An S10 was calculated for a compound by dividing the number of kinases found to have a percent of control (DMSO) less than 10 by the total number of distinct kinases tested (excluding mutant variants). Percent of control (POC) is calculated by subtracting the signal of the control compound
(POC=0) from the signal of the test compound and dividing the outcome by the signal of DMSO (POC=100) minus the signal of the control compound. For the compounds disclosed herein, S10 scores were obtained by testing the compounds at 10 μM concentration in a kinase panel containing either 359 or 386 distinct kinases.

The next assay concerns M-NFS-60 cells. The experiment in a line: M-NFS-60 cell proliferation assay. It counts as cell-based, mouse. The settings on record: Mus musculus; 72 hours incubation, Alamar Blue, M-CSF-dependent cells; read-out: CSF1R Cell Proliferation (M-NFS-60) IC50. As to the method:
In certain embodiments, the compounds disclosed herein are tested in an M-NFS-60 cell proliferation assay to determine their cellular potency against CSF-1R. M-NFS-60s are mouse monocytic cells that depend on the binding of the ligand M-CSF to its receptor, CSF-1R, to proliferate Inhibition of CSF-1R kinase activity will cause reduced growth and/or cell death. This assay assesses the potency of compounds as CSF-1R inhibitors by measuring the reduction of Alamar Blue reagent by viable cells. An exemplary assay is described in the Examples section.
The compounds disclosed herein were tested in an M-NFS-60 cell proliferation assay to determine their cellular potency against CSF1R. M-NFS-60s are mouse monocytic cells that depend on the binding of the ligand M-CSF to its receptor, CSF1R, to proliferate Inhibition of CSF1R kinase activity will cause reduced growth and/or cell death. This assay assesses the potency of compounds as CSF1R inhibitors by measuring the reduction of Alamar Blue reagent by viable cells.
On day one of the experiment, M-NFS-60 cells were maintained in RPMI complete medium (Omega Scientific) plus 10% FBS supplemented with 20 ng/mL of M-CSF (R&D Systems). 96-well TC-treated, flat bottom plates were seeded at 10,000 cell/well at a volume of 100 μL per well. The cells were cultured overnight at 37° C. under 5% CO2.
On day two, compounds were added to the cells at 9 different concentrations, with half-log intervals alongside a control reference compound serving as a positive control. Final DMSO concentration was kept at 0.5% for a final volume of 200 μL. The compounds were allowed to incubate with the cells for 72 hours at 37° C. under 5% CO2.
On day five of the experiment, 40 μl of Alamar Blue reagent was added to each well and allowed to incubate for 3 hours. Alamar Blue fluorescence was read using SoftMax Pro software at 560 nm (excitation) and 590 nm (emission). IC50s were generated as an average of duplicates and represents the concentration of test compound that achieves 50% inhibition of cellular proliferation compared to control.
(In general: Alamar Blue is a resazurin reagent that responds to reducing activity.)

Another assay addresses T1, CSF1R (human) (Homo sapiens, UniProt P07333).
T1 construct: made in house; host or cells: T7 phage display or HEK-293 cells (alternatives, not resolved per kinase)
Description: Competition binding assay, CSF1R (human) Kd. As to the method:
The liganded beads were blocked with excess biotin and washed with blocking buffer (SeaBlock (Pierce), 1% BSA, 0.05% Tween 20, 1 mM DTT) to remove unbound ligand and to reduce non-specific binding. […] Test compounds were prepared as 100× stocks in DMSO and diluted into the aqueous environment. Kds were determined using an eleven point threefold serial dilutions. DMSO or control compounds were was added to control assays lacking a test compound. […] The kinase concentration in the eluates was measured by quantitative PCR.

T1 sequence (P07333 20-972): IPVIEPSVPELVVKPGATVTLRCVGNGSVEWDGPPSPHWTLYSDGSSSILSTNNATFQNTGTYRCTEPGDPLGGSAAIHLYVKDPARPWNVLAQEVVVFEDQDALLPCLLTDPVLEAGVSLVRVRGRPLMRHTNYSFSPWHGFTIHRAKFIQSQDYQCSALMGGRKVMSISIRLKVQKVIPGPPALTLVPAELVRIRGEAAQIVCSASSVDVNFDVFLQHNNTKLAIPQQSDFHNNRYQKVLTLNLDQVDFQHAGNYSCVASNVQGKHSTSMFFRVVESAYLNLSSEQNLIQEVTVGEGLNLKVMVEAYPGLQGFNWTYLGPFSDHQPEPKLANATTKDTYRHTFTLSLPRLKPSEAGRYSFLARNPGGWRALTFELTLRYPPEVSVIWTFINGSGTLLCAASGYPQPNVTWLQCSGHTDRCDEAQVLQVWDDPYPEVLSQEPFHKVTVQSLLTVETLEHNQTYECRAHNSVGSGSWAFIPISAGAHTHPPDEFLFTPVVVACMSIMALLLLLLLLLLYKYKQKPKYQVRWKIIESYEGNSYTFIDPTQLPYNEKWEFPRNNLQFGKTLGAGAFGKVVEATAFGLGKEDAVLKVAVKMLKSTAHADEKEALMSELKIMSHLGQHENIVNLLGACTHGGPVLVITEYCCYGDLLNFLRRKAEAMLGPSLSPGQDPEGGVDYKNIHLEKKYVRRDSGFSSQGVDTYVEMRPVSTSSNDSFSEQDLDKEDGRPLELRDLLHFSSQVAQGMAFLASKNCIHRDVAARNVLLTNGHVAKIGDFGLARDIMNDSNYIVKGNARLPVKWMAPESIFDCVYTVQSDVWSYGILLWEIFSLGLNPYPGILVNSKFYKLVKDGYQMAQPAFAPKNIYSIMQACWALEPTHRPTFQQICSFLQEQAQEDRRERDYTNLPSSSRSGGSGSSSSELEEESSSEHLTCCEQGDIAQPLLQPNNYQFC

For the molecule `CC(C)(C)c1cc(NC(=O)Nc2ccc(NC(=O)c3cc(OC4CCNCC4)ccn3)cc2)no1`, in assay [1], the “Kinase Specificity (S10)” value is “B (0.03 < B ≦ 0.05)”.
Still for that read-out and setting: then `CCN1CCC(Oc2ccnc(C(=O)Nc3ccc(NC(=O)Nc4cc(C(C)(C)C)on4)cc3)c2)CC1`, with “B (0.03 < B ≦ 0.05)”; and `CC(C)(C)c1cc(NC(=O)Nc2ccc(NC(=O)c3ccc(OC4CCNCC4)cn3)cc2)no1`, with “C (C > 0.05)”.
Still for that read-out and setting: the same measure for `CCN1CCC(Oc2ccc(C(=O)Nc3ccc(NC(=O)Nc4cc(C(C)(C)C)on4)cc3)nc2)CC1`: “C (C > 0.05)”; for `CCN1CCC(Cc2ccc(C(=O)Nc3ccc(NC(=O)Nc4cc(C(C)(C)C)on4)cc3)nc2)CC1`: “B (0.03 < B ≦ 0.05)”.
Regarding `CCN1CCC(c2ccc(C(=O)Nc3ccc(NC(=O)Nc4cc(C(C)(C)C)on4)cc3)nc2)CC1`, in assay [1], the “Kinase Specificity (S10)” value is listed as “B (0.03 < B ≦ 0.05)”.
Take `CN1CCN(Cc2ccc(C(=O)Nc3ccc(NC(=O)Nc4cc(C(C)(C)C)on4)cc3)nc2)CC1`: the “Kinase Specificity (S10)” value in assay [1] is reported as “A (A ≦ 0.03)”.
Regarding `CC(C)(C)c1cc(NC(=O)Nc2ccc(NC(=O)c3ccc(OC4CCN(CC(F)(F)F)CC4)cn3)cc2)no1`, the “Kinase Specificity (S10)” value in assay [1] is reported as “A (A ≦ 0.03)”.
What is called Kd is the constant that tells how readily two partners part at equilibrium. The low end stands for a tighter complex, the high end for a looser complex. On to `CCN1CC(Oc2ccc(C(=O)Nc3ccc(NC(=O)Nc4cc(C(C)(C)C)on4)cc3)nc2)C1`, for which the IC50 in the assay with M-NFS-60 cells was in the range of 100 to 250 nM. Also, the Kd on CSF1R (human) is under 3 nM. In addition, the “Kinase Specificity (S10)” value in assay [1] is listed as “B (0.03 < B ≦ 0.05)”.
Regarding `CC(C)N1CCC(Oc2ccc(C(=O)Nc3ccc(NC(=O)Nc4cc(C(C)(C)C)on4)cc3)nc2)CC1`, the “Kinase Specificity (S10)” value in assay [1] is “B (0.03 < B ≦ 0.05)”.
The same measure, in the same setting: the same measure for `CN1C(C)(C)CC(Oc2ccc(C(=O)Nc3ccc(NC(=O)Nc4cc(C(C)(C)C)on4)cc3)nc2)CC1(C)C`: “C (C > 0.05)”; for `CC(C)(C)c1cc(NC(=O)Nc2ccc(NC(=O)c3ccc(OC4CCN(C5CC5)CC4)cn3)cc2)no1`: “A (A ≦ 0.03)”.
Consider `CC(C)(C)c1cc(NC(=O)Nc2ccc(NC(=O)c3ccc(OC4CCN(C(C)(C)C)CC4)cn3)cc2)no1`, for which the “Kinase Specificity (S10)” value in assay [1] is on record as “B (0.03 < B ≦ 0.05)”.
As to `CN1C(C)(C)CC(Oc2ccc(C(=O)Nc3ccc(NC(=O)Nc4cc(C(C)(CF)CF)on4)cc3)nc2)CC1(C)C`, the IC50 with M-NFS-60 cells was at most 100 nM. In addition, the Kd at CSF1R (human) was under 3 nM. For the same molecule, the “Kinase Specificity (S10)” value in assay [1] is listed as “B (0.03 < B ≦ 0.05)”.
The like results for `CN1C(C)(C)CC(Oc2ccc(C(=O)Nc3ccc(NC(=O)Nc4cc(C(C)(C)C(F)(F)F)on4)cc3)nc2)CC1(C)C` were, in that order, at most 100 nM, 3 to 10 nM and “B (0.03 < B ≦ 0.05)”.
As to `CN1C(COc2ccc(C(=O)Nc3ccc(NC(=O)Nc4cc(C(C)(C)C)on4)cc3)nc2)CCC1(C)C` (stereo not shown), the IC50 in the assay on M-NFS-60 cells is at most 100 nM. This molecule had a Kd at CSF1R (human) of 3 to 10 nM. For the same molecule, the “Kinase Specificity (S10)” value in assay [1] was “B (0.03 < B ≦ 0.05)”.
As for `CCN1C(C)(C)CC(Oc2ccc(C(=O)Nc3ccc(NC(=O)Nc4cc(C(C)(C)C)on4)cc3)nc2)CC1(C)C`, in the assay with M-NFS-60 cells, the IC50 was at most 100 nM. This molecule also yielded a Kd on CSF1R (human) of under 3 nM. For the same molecule, the “Kinase Specificity (S10)” value in assay [1] is “A (A ≦ 0.03)”.
Consider `CN1C(C)(C)CC(Oc2ccc(C(=O)Nc3ccc(NC(=O)Nc4cc(C(C)(C)C)no4)cc3)nc2)CC1(C)C`, for which, in the assay on M-NFS-60 cells, the IC50 was at most 100 nM. At CSF1R (human), the Kd fell in the range of 3 to 10 nM. Moreover, the “Kinase Specificity (S10)” value in assay [1] was “B (0.03 < B ≦ 0.05)”.
With `CC(C)N1CCC(Oc2ccc(C(=O)Nc3ccc(NC(=O)Nc4cc(C(C)(C)C)no4)cc3)nc2)CC1`, in the assay on M-NFS-60 cells, the IC50 is at most 100 nM. Moreover, on CSF1R (human), the Kd lay in the range of 3 to 10 nM. Moreover, the “Kinase Specificity (S10)” value in assay [1] is on record as “B (0.03 < B ≦ 0.05)”.
The like results for `CC(C)N1CC[C@@H](COc2ccc(C(=O)Nc3ccc(NC(=O)Nc4cc(C(C)(C)C)on4)cc3)nc2)C1` were, in that order, at most 100 nM, under 3 nM and “C (C > 0.05)”.
The like results for `CCN1C(C)(C)CC(Oc2ccc(C(=O)Nc3ccc(NC(=O)Nc4cc(C(C)(C)C)no4)cc3)nc2)CC1(C)C` were, in that order, at most 100 nM, over 10 nM and “B (0.03 < B ≦ 0.05)”.
The like results for `CCN1CCC(Oc2ccc(C(=O)Nc3ccc(NC(=O)Nc4cc(C(C)(C)C)no4)cc3)nc2)CC1` were, in that order, at most 100 nM, 3 to 10 nM and “B (0.03 < B ≦ 0.05)”.
As for `CCN1CC[C@@H](COc2ccc(C(=O)Nc3ccc(NC(=O)Nc4cc(C(C)(C)C)on4)cc3)nc2)C1`, the IC50 in the assay on M-NFS-60 cells is at most 100 nM. Besides, the Kd at CSF1R (human) was over 10 nM. Further, in assay [1], the “Kinase Specificity (S10)” value was “C (C > 0.05)”.
The like results for `CN1C(C)(C)CC(=O)C(c2ccc(C(=O)Nc3ccc(NC(=O)Nc4cc(C(C)(C)C)on4)cc3)nc2)C1(C)C` (stereo not shown) were, in that order, 100 to 250 nM, under 3 nM and “A (A ≦ 0.03)”.
The like results for `CN1C(C)(C)CC(C)(Oc2ccc(C(=O)Nc3ccc(NC(=O)Nc4cc(C(C)(C)C)on4)cc3)nc2)CC1(C)C` were, in that order, at most 100 nM, under 3 nM and “C (C > 0.05)”.
With `CC(C)(C)c1cc(NC(=O)Nc2ccc(NC(=O)c3ccc(OC4CN5CCC4CC5)cn3)cc2)no1` (stereo not shown), the IC50 in the assay on M-NFS-60 cells was at most 100 nM. In addition, on CSF1R (human), the Kd was under 3 nM. Besides, in assay [1], the “Kinase Specificity (S10)” value is “C (C > 0.05)”.
The like results for `CC(C)(C)c1cc(NC(=O)Nc2ccc(NC(=O)c3ccc(OC[C@H]4CCCN5CCCC[C@@H]45)cn3)cc2)no1` were, in that order, at most 100 nM, under 3 nM and “C (C > 0.05)”.
The like results for `CN1C(C)(C)CC(Oc2ccc(C(=O)Nc3ccc(NC(=O)Nc4cc(C(C)(C)C)nn4C)cc3)nc2)CC1(C)C` were, in that order, 100 to 250 nM, 3 to 10 nM and “B (0.03 < B ≦ 0.05)”.
The like results for `CN1C(C)(C)CC(Oc2ccc(C(=O)Nc3ccc(NC(=O)Nc4cc(C(F)(F)F)n(C)n4)cc3)nc2)CC1(C)C` were, in that order, 250 to 1000 nM, under 3 nM and “C (C > 0.05)”.
Turning to `CN1C(C)(C)CC(Oc2ccc(C(=O)Nc3cccc(CNC(=O)Nc4cc(C(C)(C)C)on4)c3)nc2)CC1(C)C`, the IC50 in the assay with M-NFS-60 cells is over 1000 nM. Further, the Kd on CSF1R (human) was over 10 nM. For the same molecule, the “Kinase Specificity (S10)” value in assay [1] was “C (C > 0.05)”.
For the molecule `CC1(C)CC(Oc2ccc(C(=O)Nc3ccc(NC(=O)Nc4cc(C(C)(C)C)on4)cc3)nc2)CC(C)(C)N1`, the “Kinase Specificity (S10)” value in assay [1] is listed as “C (C > 0.05)”.
For `CN1C(C)(C)CC(Oc2ccc(C(=O)Nc3ccc(NC(=O)Nc4cc(C(C)(C)C)on4)cc3)nn2)CC1(C)C`, the IC50 with M-NFS-60 cells is 250 to 1000 nM. The same molecule had a Kd at CSF1R (human) of under 3 nM. Moreover, in assay [1], the “Kinase Specificity (S10)” value is reported as “C (C > 0.05)”.
For the molecule `CN1C(C)(C)CC(Oc2cnc(C(=O)Nc3ccc(NC(=O)Nc4cc(C(C)(C)C)on4)cc3)cn2)CC1(C)C`, the IC50 in the assay on M-NFS-60 cells was 100 to 250 nM. This molecule also yielded a Kd at CSF1R (human) of 3 to 10 nM. Also, in assay [1], the “Kinase Specificity (S10)” value was “B (0.03 < B ≦ 0.05)”.

For the origin of these results see US9296722B2, “Azolyl urea compounds and methods of use thereof” (Ambit Biosciences Corporation, priority 2010, dated 2016).
